In PMC8390638, “Termitomenins F and G, Two New Lignan Glucosides from Terminalia chebula var. tomentella (Kurz) C. B. Clarke” (Natural Products and Bioprospecting, 2021) one finds IC50 data, which are given here for four compounds.

The target in this experiment is α-glucosidase. The experiment is described as follows: α-glucosidase inhibitor screening assay (PNPG substrate, absorbance at 405 nm). The following applies: means ± SD (n = 3), phosphate buffer pH 6.8, 37 °C, 1 h, Reed and Muench method, read-out: IC50 (one-half maximal inhibitory concentration to α-glucosidase). In kind it is biochemical. Here is the method: The α-glucosidase inhibitor screening assay was conducted as reported previously and slightly modified. […] 4-Nitrophenol-α-D-glucopyranoside (PNPG) was used as an enzyme inhibitor screening model. α-glucosidase solution (0.025 U·mL^−1), PNPG (0.1 M), phosphate buffer (pH 6.8) and test samples (50 μM) were incubated in 96-well plates at 37 °C for 1 h. A microplate reader was recorded by the absorbance at 405 nm. No enzyme as the blank readings were subtracted from each well and compared to the control. In this assay, all reactions were performed in triplicate. The α-glucosidase inhibitory activity was presented as inhibition ratio. The formula to calculate the inhibition rate is as follows: inhibition rate (%) = (1 ‒ OD experimental 405 nm/OD […] 405 nm) × 100%, and IC50 values were calculated according to the Reed and Muench method.
Turning to `O=C1O[C@H]2[C@@H]3OC(=O)c4cc(O)c(O)c(O)c4-c4c(O)c(O)c5oc(=O)c6c(c(O)c(O)c7oc(=O)c4c5c76)-c4c(cc(O)c(O)c4O)C(=O)OC[C@H]3OC(O)[C@@H]2OC(=O)c2cc(O)c(O)c(O)c2-c2c1cc(O)c(O)c2O` (mixture of isomers) [Compound 10, punicalagin], the IC50 was found to be 270 ± 10 nM.

For `O=C(OC[C@H]1O[C@@H](OC(=O)c2cc(O)c(O)c(O)c2)[C@H](O)[C@@H](OC(=O)c2cc(O)c(O)c(O)c2)[C@@H]1O)c1cc(O)c(O)c(O)c1` [Compound 11, 1,3,6-tri-O-galloyl-β-D-glucopyranose], the IC50 was 2280 ± 70 nM. As to `O=C(OC[C@H]1O[C@@H](OC(=O)c2cc(O)c(O)c(O)c2)[C@H](OC(=O)c2cc(O)c(O)c(O)c2)[C@@H](OC(=O)c2cc(O)c(O)c(O)c2)[C@@H]1OC(=O)c1cc(O)c(O)c(O)c1)c1cc(O)c(O)c(O)c1` [Compound 12, 1,2,3,4,6-penta-O-galloyl-β-D-glucopyranose], the IC50 came out at 100 ± 10 nM. In the case of `O=C(O[C@@H]1O[C@@H]2COC(=O)c3cc(O)c(O)c(O)c3-c3c(cc(O)c(O)c3O)C(=O)O[C@H]([C@H]1O)[C@@H]2O)c1cc(O)c(O)c(O)c1` [Compound 13, corilagin], the IC50 worked out at 3120 ± 230 nM.
